For the series, the system named is CHO cell line. In words: In vitro test of metabolization in CHO cells (steroids in culture medium by GC/MS). As for the experimental part: In Vitro Test of Metabolization
In this example, CHO cell line was used. These cells derived from the ovary have all the enzymes needed to metabolize pregnenolone in downstream steroids.
The content in CHO culture medium of allopregnanolone (ALLO), epiallopregnanolone (EPIALLO), pregnenolone (PREG), DHEA, and testosterone (TESTO) was measured by GC/MS.
Pregnenolone derivatives having C3 substituted with benzyloxy were tested using in vitro test in CHO cells.
Results expressed as percentage changes from CHO cells treated with Pregnenolone or as pg/ml (0=concentrations below the detection limit).

The mark [1] stands for this setting: CHO culture medium, Pregnenolone 1 μM, 48 hours, GC/MS.

Turning to `COc1ccc(CO[C@H]2CC[C@@]3(C)C(=CCC4C3CC[C@@]3(C)C4CC[C@]3(C)C(C)=O)C2)cc1` (stereo partly drawn) [Compound 68, 3β-(p-methoxy- benzyloxy)-17α- methyl- pregnenolone], the “metabolised in Pregnenolone (in words)” value (CHO cells, Table 2) is given as “not metabolised”.
In the case of `CC(=O)[C@H]1CC[C@H]2[C@@H]3CC=C4C[C@@H](O)CC[C@]4(C)[C@H]3CC[C@]12C` [Pregnenolone], the “Allopregnanolone and Epiallopregnanolone in the culture medium (in words)” value (CHO cells, 1 μM, 48 hours) is given as “significant increase”. Also, under setting [1], the “ALLO (allopregnanolone) steroid levels” value was 3529.99 pg/mL, the DHEA steroid levels worked out at 0.00 pg/mL, the “EPIALLO (epiallopregnanolone) steroid levels” value turned out to be 16963.84 pg/mL and the “PREG (pregnenolone) steroid levels” value came to 11440.66 pg/mL. Under setting [1], the “TESTO (testosterone) steroid levels” value is 0.00 pg/mL.

Source of the values: patent publication US9732115B2, “3-(4′-substituted)-benzyl-ether derivatives of pregnenolone” (INSERM (Institut National de la Sante et de la Recherche …, priority 2012, dated 2017).
